Laboratory results as given in ChEMBL document CHEMBL1944509, “Methyl-monofluorination of ibuprofen selectively increases its inhibitory activity toward cyclooxygenase-1 leading to enhanced analgesic activity and reduced gastric damage in vivo” (Bioorg Med Chem Lett, 2011).
Active and inactive are the calls of the source. The calls are words filed in the database; no cut-off is given here.

Legend:
[1] = biological target: T1, Prostaglandin G/H synthase 2 (Homo sapiens) (UniProt P35354); test: Inhibition of human recombinant COX2 up to 1 mM by EIA
T1 sequence (whole entry): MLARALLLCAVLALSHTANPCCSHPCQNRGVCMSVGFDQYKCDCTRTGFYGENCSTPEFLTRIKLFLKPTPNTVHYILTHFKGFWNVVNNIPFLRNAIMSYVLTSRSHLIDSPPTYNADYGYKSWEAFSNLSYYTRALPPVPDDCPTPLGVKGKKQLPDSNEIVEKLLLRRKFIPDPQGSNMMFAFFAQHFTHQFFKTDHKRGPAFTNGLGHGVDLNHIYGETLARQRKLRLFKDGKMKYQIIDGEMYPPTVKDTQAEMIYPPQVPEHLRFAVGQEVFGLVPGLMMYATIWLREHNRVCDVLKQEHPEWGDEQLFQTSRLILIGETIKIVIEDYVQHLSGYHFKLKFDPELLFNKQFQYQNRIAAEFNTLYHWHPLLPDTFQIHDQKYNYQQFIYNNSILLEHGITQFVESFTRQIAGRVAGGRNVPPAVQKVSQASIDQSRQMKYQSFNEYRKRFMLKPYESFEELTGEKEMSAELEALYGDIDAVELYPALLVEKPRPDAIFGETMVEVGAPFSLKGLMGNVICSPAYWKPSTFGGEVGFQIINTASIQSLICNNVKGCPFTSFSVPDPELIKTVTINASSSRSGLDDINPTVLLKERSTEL

[2] = biological target: T2, Prostaglandin G/H synthase 1 (Ovis aries) (UniProt P05979); test: Inhibition of ovine COX1 up to 1 mM by EIA
T2 sequence (whole entry): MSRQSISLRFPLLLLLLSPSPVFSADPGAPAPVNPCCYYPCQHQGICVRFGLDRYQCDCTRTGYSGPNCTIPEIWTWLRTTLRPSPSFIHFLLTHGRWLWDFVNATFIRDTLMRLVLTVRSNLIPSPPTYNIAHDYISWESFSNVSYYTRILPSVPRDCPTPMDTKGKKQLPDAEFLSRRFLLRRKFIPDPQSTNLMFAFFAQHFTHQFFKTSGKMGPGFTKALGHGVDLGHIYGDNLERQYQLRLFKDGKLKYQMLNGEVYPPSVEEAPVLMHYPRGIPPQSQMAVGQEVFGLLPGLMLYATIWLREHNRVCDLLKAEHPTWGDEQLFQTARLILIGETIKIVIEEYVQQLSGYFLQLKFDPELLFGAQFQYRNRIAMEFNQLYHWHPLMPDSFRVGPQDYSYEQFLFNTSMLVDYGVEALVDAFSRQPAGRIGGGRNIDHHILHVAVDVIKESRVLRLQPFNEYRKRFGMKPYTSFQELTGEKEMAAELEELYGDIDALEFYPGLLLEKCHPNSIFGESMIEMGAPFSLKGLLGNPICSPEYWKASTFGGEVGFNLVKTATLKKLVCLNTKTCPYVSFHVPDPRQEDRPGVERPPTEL

inhibition [1]: inactive | inhibition [2]: inactive
SMILES: CC(C)Cc1ccc([C@@H](CF)C(=O)O)cc1
